Data: article PMC8125440, “A Novel N-Tert-Butyl Derivatives of Pseudothiohydantoin as Potential Target in Anti-Cancer Therapy” (Molecules, 2021)

Columns and labels:
[1] = biological target: T1, 11β-hydroxysteroid dehydrogenase type 2 (11β-HSD2) (Homo sapiens, UniProt P80365); assay: cortisol to cortisone conversion in human kidney microsomes, cortisol ELISA; assay type: cell-based
T1 construct: gene HSD11B2
T1 sequence (P80365 1-405): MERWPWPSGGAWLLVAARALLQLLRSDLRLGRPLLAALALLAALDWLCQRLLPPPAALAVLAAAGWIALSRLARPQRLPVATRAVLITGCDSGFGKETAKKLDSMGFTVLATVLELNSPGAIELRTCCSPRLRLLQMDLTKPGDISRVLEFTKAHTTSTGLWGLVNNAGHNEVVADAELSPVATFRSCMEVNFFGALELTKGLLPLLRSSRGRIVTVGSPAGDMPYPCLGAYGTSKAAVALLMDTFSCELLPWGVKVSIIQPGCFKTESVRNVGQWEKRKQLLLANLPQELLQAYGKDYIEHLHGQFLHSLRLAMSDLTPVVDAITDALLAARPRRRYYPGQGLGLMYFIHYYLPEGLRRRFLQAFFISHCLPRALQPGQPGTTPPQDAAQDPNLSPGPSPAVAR

[2] = biological target: T2, 11β-hydroxysteroid dehydrogenase type 1 (11β-HSD1) (Homo sapiens, UniProt P28845); assay: cortisone to cortisol conversion in pooled human liver microsomes, cortisol ELISA; assay type: cell-based
T2 construct: gene HSD11B1
T2 sequence (P28845 whole entry): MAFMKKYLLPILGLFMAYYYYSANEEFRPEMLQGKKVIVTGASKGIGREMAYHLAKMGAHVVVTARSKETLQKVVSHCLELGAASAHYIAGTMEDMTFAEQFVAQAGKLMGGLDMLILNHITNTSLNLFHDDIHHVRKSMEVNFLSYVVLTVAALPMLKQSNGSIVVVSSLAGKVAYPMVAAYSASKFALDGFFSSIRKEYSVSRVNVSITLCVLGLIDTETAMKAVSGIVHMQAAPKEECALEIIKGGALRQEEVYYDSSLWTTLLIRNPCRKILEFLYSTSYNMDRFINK

CC(C)(C)NC1=NC(=O)C(c2ccccc2)S1 (centres unmarked) [3f, 2-(tert-Butylamino)-5-phenylthiazol-4(5H)-one]
inhibition at 10 µM [1]: 53.6%

CC(C)(C)NC1=NC(=O)C2(CCCCC2)S1 [3h, 2-(tert-Butylamino)-1-thia-3-azaspiro[4.5]dec-2-en-4-one]
inhibition at 10 µM [2]: 82.5%
